From patent US20190076384A1, “METHODS FOR TREATING UREA CYCLE DISORDERS” (priority 2017, published 2019)
Read-outs that look alike come from different tables or passages of the source.

What was measured:
CYP2C19 = biological target: T1, CYP2C19 (Homo sapiens, UniProt P33261); format: in vitro ADME; conditions: S-Mephenytoin 4′-hydroxylase, 5 mM
T1 construct: from tissue; host or cells: human liver microsomes

Cytochrome P450 2C9 = Cytochrome P450 2C9 (Homo sapiens, UniProt P11712); experiment: clinical; conditions: multiple doses of RAVICTI
Sequence of Cytochrome P450 2C9 (P11712 whole entry): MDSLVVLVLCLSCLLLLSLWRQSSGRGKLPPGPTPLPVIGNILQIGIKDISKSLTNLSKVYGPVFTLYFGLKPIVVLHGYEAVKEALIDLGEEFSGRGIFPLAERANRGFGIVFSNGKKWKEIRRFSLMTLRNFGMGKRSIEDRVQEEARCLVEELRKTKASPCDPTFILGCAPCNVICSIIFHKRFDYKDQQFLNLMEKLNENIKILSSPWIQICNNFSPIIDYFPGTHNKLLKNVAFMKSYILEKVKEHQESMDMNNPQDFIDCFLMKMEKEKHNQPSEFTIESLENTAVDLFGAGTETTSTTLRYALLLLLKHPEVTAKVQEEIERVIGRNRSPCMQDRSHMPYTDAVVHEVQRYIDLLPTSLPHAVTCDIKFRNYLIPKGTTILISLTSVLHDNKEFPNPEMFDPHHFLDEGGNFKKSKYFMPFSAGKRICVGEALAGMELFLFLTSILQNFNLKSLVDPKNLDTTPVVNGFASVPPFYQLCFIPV
Procedure: Methodology: This was an open-label, 2-period, monosequence crossover, drug-drug interaction (DDI) study of RAVICTI and celecoxib in healthy male and female subjects.
Test Product, Dose, Duration, and Mode of Administration: In Treatment A (Period 1), subjects received 200 mg celecoxib (1×200 mg capsule) administered orally with approximately 240 mL of water following an overnight fast and approximately 5 minutes prior to the start of a standard breakfast on Day 1.
Pharmacokinetics: Blood samples (4 mL) for the analysis of plasma celecoxib were collected on Days 1 (Period 1) and 4 (Period 2) at the following time points: predose (Hour 0) and 1, 2, 3, 4, 6, 8, 12, 16, 24, 36, 48, 60, and 72 hours postdose. A blood sample (6 mL) for CYP2C9 genotyping was collected at screening to exclude any subjects with a slow metabolizer genotype (i.e., CYP2C9*2/*2, CYP2C9*2/*3, CYP2C9*1/*3, and CYP2C9*3/*3). PK parameters for celecoxib in plasma were computed following Day 1 (Period 1) and Day 4 (Period 2) blood draws and included AUC0-t, AUC0-inf, AUC%extr, Cmax, tmax, t1/2, kel, and CL/F.
Pharmacokinetics: The possible DDI was examined between co-administration of RAVICTI and celecoxib (Treatment B, test) and celecoxib administered alone (Treatment A, reference). An analysis of variance (ANOVA) was performed with treatment as a fixed effect and subject as a random effect. Data for AUC0-t, AUC0-inf, and Cmax, as appropriate, were ln-transformed prior to analysis. The 90% confidence intervals (CIs) of the test group means relative to the reference group means were obtained by taking the antilog of the corresponding 90% CIs for the differences between the means on the log scale, i.e., ratio of geometric least-squares (LS) means.

CYP2C9 = CYP2C9 (Homo sapiens, UniProt P11712); conditions: Diclofenac 4′-hydroxylase, 5 mM
Sequence of CYP2C9 (P11712 whole entry): as above

CYP2D6 = CYP2D6 (Homo sapiens, UniProt P10635); conditions: Bufuralol 1′-hydroxylase, 5 mM
Sequence of CYP2D6 (P10635 whole entry): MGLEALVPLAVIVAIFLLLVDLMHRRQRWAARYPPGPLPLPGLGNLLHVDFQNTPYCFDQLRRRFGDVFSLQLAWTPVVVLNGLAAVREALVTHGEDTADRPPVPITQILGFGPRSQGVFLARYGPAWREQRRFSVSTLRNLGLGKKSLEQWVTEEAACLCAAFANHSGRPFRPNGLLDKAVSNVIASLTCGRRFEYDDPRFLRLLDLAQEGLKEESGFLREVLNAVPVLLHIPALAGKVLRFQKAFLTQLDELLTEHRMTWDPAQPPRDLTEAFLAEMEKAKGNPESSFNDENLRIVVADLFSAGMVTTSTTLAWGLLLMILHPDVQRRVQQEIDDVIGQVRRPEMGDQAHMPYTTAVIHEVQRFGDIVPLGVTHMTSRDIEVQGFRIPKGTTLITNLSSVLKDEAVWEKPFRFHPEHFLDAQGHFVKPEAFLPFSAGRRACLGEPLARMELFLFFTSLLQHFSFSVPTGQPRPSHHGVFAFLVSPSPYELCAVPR

T1 sequence (P33261 whole entry): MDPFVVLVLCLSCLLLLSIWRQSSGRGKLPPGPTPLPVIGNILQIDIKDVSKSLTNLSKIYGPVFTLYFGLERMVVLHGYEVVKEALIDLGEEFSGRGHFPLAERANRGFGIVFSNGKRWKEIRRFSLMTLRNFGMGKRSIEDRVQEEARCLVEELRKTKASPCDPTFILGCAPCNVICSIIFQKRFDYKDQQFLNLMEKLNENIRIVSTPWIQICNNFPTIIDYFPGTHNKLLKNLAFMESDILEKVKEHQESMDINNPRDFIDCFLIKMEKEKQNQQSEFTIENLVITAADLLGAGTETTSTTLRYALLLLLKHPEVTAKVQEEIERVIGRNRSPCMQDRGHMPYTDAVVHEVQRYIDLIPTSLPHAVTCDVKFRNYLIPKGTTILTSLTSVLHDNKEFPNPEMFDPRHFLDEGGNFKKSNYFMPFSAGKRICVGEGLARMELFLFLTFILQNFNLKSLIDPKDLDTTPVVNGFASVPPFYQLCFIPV

## O=C(CCCc1ccccc1)OCC(COC(=O)CCCc1ccccc1)OC(=O)CCCc1ccccc1 [RAVICTI, benzenebutanoic acid, 1′,1″-(1,2,3-propanetriyl) ester]
CYP2C19; pre-incubation time 0 min
  % Inhibition: 8%
CYP2C19; pre-incubation time 30 min
  % Inhibition: 7%
Cytochrome P450 2C9
  inhibition of CYP2C9 activity in vivo: did not appear to inhibit
CYP2C9; pre-incubation time 0 min
  % Inhibition: 35%
CYP2C9; pre-incubation time 30 min
  % Inhibition: 19%
CYP2D6; pre-incubation time 0 min
  % Inhibition: 1%
CYP2D6; pre-incubation time 30 min
  % Inhibition: 4%
